# Experimental data published in patent US6372937B1, “Enhanced catalyzed reporter deposition” (priority 1998, dated 2002).
# Legend:
# HRP [1] = target: T1, HRP (Armoracia rusticana, UniProt P00433); experiment: Enhanced CARD detection using biotinyl tyramide on human prostate tissue slides; assay type: biochemical, horseradish; settings: enhancer at 20:1 (w/w) plus NaCl 2M, Streptavidin-HRP/diaminobenzidine readout
# T1 sequence (P00433 31-338): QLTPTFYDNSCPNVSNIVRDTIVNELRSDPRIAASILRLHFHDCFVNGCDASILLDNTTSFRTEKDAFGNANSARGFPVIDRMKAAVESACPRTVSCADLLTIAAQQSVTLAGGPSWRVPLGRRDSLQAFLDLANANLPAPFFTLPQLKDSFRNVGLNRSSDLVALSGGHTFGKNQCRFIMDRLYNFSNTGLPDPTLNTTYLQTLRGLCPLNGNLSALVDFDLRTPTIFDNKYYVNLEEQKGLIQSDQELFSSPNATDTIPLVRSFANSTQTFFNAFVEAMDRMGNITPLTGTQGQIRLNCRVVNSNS
# Protocol: Human prostate tissue slides (Dako) were deparaffinized and blocked for thirty minutes with TNB Blocking Buffer (TSA Indirect kit, NEN Life Science Products). Rabbit anti-human prostate specific antigen (Dako) diluted 1/100,000 in TNB buffer was incubated for one hour at room temperature. The slides were washed in TNT buffer (TSA Indirect kit) and then incubated with an anti-rabbit IgG-HRP conjugate (Roche) diluted 1/1000 in TNB buffer for one hour at room temperature.
# Standard CARD detection was performed using the TSA Indirect kit, which utilizes biotinyl tyramide. Organic and salt enhanced CARD detection was performed using the TSA Indirect kit, adding N-(5-hydroxypentyl)-3-(p-hydroxyphcnyl)propionamide (structure 1) at a 20:1 (w/w) ratio to the biotinyl tyramide reagent and adding NaCl to the diluent to a final concentration of 2M. The slides were washed in TNT buffer, and Streptavidin-HRP (TSA Indirect kit) diluted 1/100 in TNB buffer was incubated for thirty minutes at room temperature. The slides were washed in TNT buffer and diaminobenzidine (NEN Life Science Products) was added and incubated for three minutes at room temperature. The slides were washed with water, and counterstained with Hematoxylin. The slides were then washed with water, phosphate buffered saline, water, dehydrated and mounted.
# HRP [2] = target: T1, HRP; experiment: Enhanced CARD detection using cyanine 3 tyramide on human prostate tissue slides; assay type: biochemical, horseradish
# Protocol: Human prostate tissue slides (Dako Corp., Carpinteria, Calif.) were deparaffinized and blocked for thirty minutes with TNB Blocking Buffer (TSA Direct Cyanine 3 kit, NEN Life Science Products, Boston, Mass.). Rabbit anti-human prostate specific antigen (Dako) diluted 1/40,000 in TNB buffer was incubated for one hour at room temperature. The slides were washed in TNT buffer (TSA Direct Cyanine 3 kit) and then incubated with an anti-rabbit IgG-HRP conjugate (Roche Molecular Biochemicals, Indianapolis, Ind.) diluted 1/1000 in TNB buffer for one hour at room temperature. Standard CARD detection was performed using the TSA Direct Cyanine 3 kit. Organic enhanced CARD detection was performed using the TSA Direct Cyanine 3 kit and adding p-iodophenyl boronic acid (structure 2) at a 20:1 (w/w) ratio to the cyanine 3 tyramide reagent. Organic and salt enhanced CARD detection was performed using the TSA Direct Cyanine 3 kit, adding p-iodophenyl boronic acid (structure 2) at a 20:1 (w/w) ratio to the cyanine 3 tyramide reagent and adding NaCl to the diluent to a final concentration of 2M. The slides were washed in TNT buffer, mounted with mounting medium and a coverslip.
# HRP [3] = target: T1, HRP; experiment: Enhanced CARD detection using fluorescein tyramide on human prostate tissue slides; assay type: biochemical, horseradish
# Protocol: Human prostate tissue slides (Dako) were deparaffinized and blocked for thirty minutes with TNB Blocking Buffer (TSA Direct Green kit, NEN Life Science Products). Rabbit anti-human prostate specific antigen (Dako) diluted 1/10,000 in TNB buffer was incubated for one hour at room temperature. The slides were washed in TNT buffer (TSA Direct Green kit) and then incubated with an anti-rabbit IgG-HRP conjugate (Roche) diluted 1/1000 in TNB buffer for one hour at room temperature. Standard CARD detection was performed using the TSA Direct Green kit, which utilizes fluorescein tyramide. Organic enhanced CARD detection was performed using the TSA Direct Green kit and adding p-iodophenyl boronic acid (structure 2) at a 20:1 (w/w) ratio to the fluorescein tyramide reagent. Organic and salt enhanced CARD detection was performed using the TSA Direct Green kit, adding p-iodophenyl boronic acid (structure 2) at a 20:1 (w/w) ratio to the fluorescein tyramide reagent and adding NaCl to the diluent to a final concentration of 2M. The slides were washed in TNT buffer, mounted with mounting medium and a coverslip.
# HRP [4] = target: T1, HRP; settings: cited from earlier work
# [5] = NaCl 2M in diluent added to p-iodophenyl boronic acid 20:1 (w/w)
# [6] = enhancer at 20:1 (w/w) ratio to tyramide reagent
smiles,measurement,setting,value
O=C(CCc1ccc(O)cc1)NCCCCCO [N-(5-hydroxypentyl)-3-(p-hydroxyphcnyl)propionamide],organic and salt enhanced vs standard CARD detection (FIG. 3A compared to FIG. 3B),HRP [1],striking difference
[Cl-].[Na+] [NaCl],addition of salt to the organic enhanced CARD detection (FIG. 1B compared to FIG. 1C),HRP [2]; [5],significant improvement
same,addition of salt to the organic enhanced CARD detection (FIG. 2B compared to FIG. 2C),HRP [3]; [5],very dramatic improvement
c1c[nH]cn1 [imidazole],effect on the oxidation of 4-chloro-1-naphthol,HRP [4]; substrate 4-chloro-1-naphthol,no effect
same,enhancement of the oxidation of p-phenylenediamine-pyrocatechol,HRP [4]; substrate combination p-phenylenediamine-pyrocatechol,two fold
same,enhancement of the oxidation of diaminobenzidine,HRP [4]; substrate diaminobenzidine,approximately four fold
OB(O)c1ccc(I)cc1 [p-iodophenyl boronic acid],organic enhanced vs standard CARD detection (FIG. 1A compared to FIG. 1B),HRP [2]; [6],very dramatic difference
same,organic enhanced vs standard CARD detection (FIG. 2A compared to FIG. 2B),HRP [3]; [6],significant difference
